Assay results from patent US20170197977A9, “COMPOSITIONS AND METHODS FOR TREATING NEURODEGENERATIVE DISEASE” (COGNITION THERAPEUTICS, INC., priority 2011, published 2017).
“Also recorded” adds a separate entry of the source.

Columns and labels:
[1] = target: T1, sigma 2 (agonist radioligand) (Rattus norvegicus, UniProt Q5U3Y7); assay: Receptor binding assay, displacement of known radioligand; settings: read-out: % Inhibition of Control
T1 sequence (Q5U3Y7 1-176): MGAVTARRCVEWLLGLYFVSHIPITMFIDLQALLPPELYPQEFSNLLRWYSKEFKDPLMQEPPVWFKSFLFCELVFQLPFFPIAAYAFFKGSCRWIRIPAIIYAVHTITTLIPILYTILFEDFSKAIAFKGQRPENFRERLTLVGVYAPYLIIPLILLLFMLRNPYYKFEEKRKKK

100 known receptors = assay: Test for action at 100 known receptors; format: binding, human; settings: 10 μM
Procedure: It was also tested for its ability to block downstream signaling induced by agonists or antagonists of a given human receptor.

[2] = tested on: Abeta oligomer-induced membrane trafficking deficits; assay: Membrane trafficking/exocytosis (MTT) assay in mature primary hippocampal neurons; format: cell-based, rat; settings: for Membrane trafficking when dosed in the absence of Abeta: compound alone
Procedure: The present exocytosis assay was adapted for use with mature primary neuronal cultures grown for 3 weeks in vitro.
The methods used to generate the results were as follows in the Membrane Trafficking/Exocytosis (MTT) assay.
Primary hippocampal neurons from E18 Sprague-Dawley rat embryos were plated at optimized concentrations in 384 well plates in NB media (Invitrogen). Neurons were maintained in cultures for 3 weeks, with twice weekly feeding of NB media with N2 supplement (Invitrogen).
[…] MTT reagent (3-(4,5-dimethylthizaol-2yl)-2,5diphenyl tetrazolium bromide) (Roche Molecular Biochemicals) was reconstituted in phosphate buffered saline to 5 mg/mL. 10 μL of MTT labeling reagent is added to each well and incubated at 37° C. for 1 h, then imaged. Exocytosis was assessed by automated microscopy and image processing to quantify the amount of endocytosed and exocytosed formazan.
Each assay plate was formatted so that compounds are tested with and without Abeta oligomer on each plate.

[3] = In vivo PK, plasma and brain levels; settings: male, C57BL/6, mouse
Source text: A plasma calibration curve was generated. […] Subcutaneous compound administration was accomplished by […]. Per oral administration was accomplished by gastric gavage. Intravenous administration was accomplished via jugular catheter. […] A brain calibration curve was generated.

[4] = tested on: Abeta oligomer binding to neurons; assay: Abeta 1-42 oligomer binding assay in primary neurons; format: cell-based, rat
Procedure: (§1) In this assay, Abeta oligomers were brought in contact with mature primary neurons in culture and their binding was determined by immunohistochemistry (anti-Abeta antibody) and quantified by image processing. The amount of Abeta in neuronal dendrites is assessed by counting the number of labeled puncta on the neuritis. […] This labeling is associated with synapses, co-localizing with the post-synaptic scaffold protein PSD-95 (Lacor et al., '04). […] The number of synapses can also be quantified in this assay by immunofluorochemistry. Similar procedures for binding assays can be found in the literature. […] Review.
(§2) Primary hippocampal neuronal culture was established as in the membrane trafficking assay above. […] Pretreatment with compounds to be tested lasted for 1 hr and addition of Abeta oligomers or no oligomer (vehicle alone) in a final concentration of 70 ul was followed by incubation for an additional 23 hrs.
(§3) The plates were then washed 3× with PBS for 5 min each. The plates were blocked at RT for 1 hr in 5% goat serum and 0.5% Triton X-100 in PBS. […] Primary antibodies were incubated overnight at 4° C. The plates were then washed 3× with PBS for 5 min each. […] Secondary antibodies were incubated at RT for 1 hr. The plates were washed once with PBS. DAPI (4′,6-diamidino-2-phenylindole, Invitrogen) was then applied at 0.03 ug/ul and incubated at RT for 5 min, then washed with PBS.
(§4) Images were captured and analyzed with the Cellomics VTI automated microscope platform, using the Neuronal Profiling algorithm. For statistical analysis, a Tukey-Kramer pair-wise comparison with unequal variance was used.

[5] = tested on: Abeta oligomer-induced synapse loss; assay: Synapse loss assay (synaptophysin puncta) in primary neurons; format: cell-based, rat
Procedure: as §1, §2, §3, §4

sigma-2 receptor = assay: Autoradiography, displacement of [3H]-RHM-1 in brain sections; format: binding; settings: 1 μM; monkey frontal cortex, monkey hippocampus, human temporal cortex
Procedure: Brain sections in 20 μM thickness from rats, rhesus monkeys and postmortem human brains were cut using with a Microm cryotome and mounted on superfrost plus glass slides (Fisher Scientific, Pittsburgh, Pa.)., and serial sections through the brain regions of cerebral cortex and hippocampus were used in this study.
Slides were dried and made conductive by coating with a copper foil tape on the free side and then placed in the gas chamber [mixture of argon and triethylamine (Sigma-Aldrich, USA)] of a gaseous detector, the Beta Imager 2000Z Digital Beta Imaging System (Biospace, France). […] [^3H]Microscale (American Radiolabeled Chemicals, Inc., St. Louis, Mo.) was counted at the same time as a reference for total radioactivity quantitative analysis, i.e., to convert the cpm/mm2 to nCi/mg tissue. Quantitative analysis was performed with the program Beta-Image Plus (BioSpace, France) for the anatomical regions of interest (ROI), i.e., to obtain the quantitative radioactivity uptake (cpm/nlln2) in the regions of cortex and hippocampus. The binding density was normalized to fmol/mg tissue based on the specific activities of the corresponding radioligands and calibration curve from the standard [^3H]Microscale.

[6] = tested on: caspase-3 activity in SKOV-3 human ovarian cancer cells; assay: Caspase-3 activity assay in tumor cells; format: cell-based
[7] = tested on: caspase-3 activity in neurons; assay: Caspase-3 activity assay in neurons; format: cell-based
Procedure: The activation of endogenous caspase-3 by sigma-2 receptor ligands was measured using the Caspase-3 Colorimetric Activity Assay Kit (Milipore, Billerica, Mass.) according to the manufacture's protocol. Briefly, MDA-MB 435 or MDA-MB23I cells were plated at 0.5×10^6 cells 100 mm dish. 24 hours after plating, sigma-2 ligands were added to the culture dishes to induce caspase 3 activation. The final concentration of the sigma-2 ligand was its EC50. 24 hours after treatment, cells were harvested, lysed in 300 uL of Cell Lysis Buffer, and centrifuged for 5 minutes at 10,000×g. Supernatant was collected and incubated with caspase-3 substrate, DEVD-pNA, for 2 hours at 37° C. […] Compounds IXa,IXb and II behaved like sigma-2 […] in both cancer cells and neurons.

[8] = tested on: neurons and glia in culture; assay: In vitro neuronal and glial toxicity, acute or chronic dosing; format: cell-based; settings: up to 50 μM, three days
CYP2D6, CYP3A4, CYP2C19 = assay: in vitro

COc1cc(CCC(C)NCc2ccc(C(F)(F)F)cc2)ccc1O (stereo not shown) [Compound II]
inhibition at 10 µM [1]: 89%
Number of receptors with activity >50% (assay window) out of 100 (100 known receptors): 5
Membrane trafficking deficits induced by AD brain-derived Abeta oligomers ([2]; 137 pM oligomers, Compound II 15 uM): eliminates the membrane trafficking deficits; also recorded: completely eliminated
Abeta oligomer-induced membrane traffic changes ([2]; 15 micromolar Compound II): blocked
Assay effects in the absence of Aβ ([2]; Table 10A, trafficking or synapse number without Abeta oligomer): No
Functional Neuronal Phenotype ([2]; Table 10B): Antagonist
Conc at Max Inhib. of Abeta ([2]; Table 11, figure in brackets): 10
Membrane trafficking when dosed in the absence of Abeta [2]: does not affect trafficking
Membrane trafficking when dosed in the absence of Abeta ([2]; listed as CT0109): no significant effect
Brain concentration as multiple of the efficacious brain dose in vivo ([3]; iv, 10 mg/kg, 180 min): 57 ×
Amount in the brain as multiple of the efficacious dose ([3]; po, 3 h): ~40 ×
Abeta binding ([4]; Compound II 15 uM): reduced to essentially control levels
Reduction of Abeta binding intensity (Abeta labeled puncta) ([4]; FIG. 3D): 18%
Partial block of binding of the Abeta oligomer ligand to neurons ([4]; imaging processing algorithm): about 25%
Share of Abeta oligomer-induced synapse loss eliminated ([5]; 5 μM of compound): 100%
Block synapse loss ([5]; Table 10B): 100%
Synapse number when dosed without Abeta oligomers ([5]; compound in vehicle alone): No effect
Abeta oligomer-induced synapse loss ([5]; in words): completely eliminated this synaptic regression
Displacement of 18.4 nM [3H]-RHM-1 (sigma-2 receptor): partially displace
Block of caspase-3 activation caused by sigma-2 receptor agonist SV-119 [6]: do not block caspase-3 activation
Induction of caspase-3 activity [6]: did not induce caspase-3 activity
Induction of caspase-3 activity [7]: did not induce caspase-3 activity
Block of caspase-3 activation caused by sigma-2 receptor agonist SV-119 ([7]; 24 hours): blocked caspase-3 activation
Toxicity (neuron number, glial number, nuclear size, nuclear morphology, neurite length, cytoskeletal morphology) [8]: no toxicity
inhibition at 10 µM (CYP2D6, CYP3A4, CYP2C19): 46 to 73%
